Source: the supplement of paper PMC8837787

System: Saccharomyces cerevisiae ABC16-Green Monster
Test: growth inhibition at single dose (up to 150 µM), below the 70% cut-off for dose-response; higher = more potent
Details: 18 h; 30 °C; YPD
How it was run: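 Percent growth inhibition is the reported value. Drug-sensitive S. cerevisiae ABC16-Green Monster cultures in log phase (OD600 0.1–0.2), 200 µl per well in 96-well plates, received each library compound once at 150 µM in biological duplicates, with untreated cultures run alongside. Growth was followed by OD600 at 0 h and after 18 h at 30 °C. Dose-response was not done for compounds below 70% in both replicates.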

| Compound | growth inhibition at single dose [%] |
| --- | --- |
| CC(=O)NC(C)CCc1ccc(-c2csc(-c3ccc(NC(=O)C4CC4)cc3)n2)cc1 (stereo unspecified) | < 70 |
| COc1ccc(C2(C(=O)Nc3ccc(Br)cc3)CCCC2)cc1 | < 70 |
| CC(NC(=O)c1cccc(Nc2ncccn2)c1)c1cccc(C(F)(F)F)c1 (stereo unspecified) | < 70 |
| C[C@H](C(N)=O)N1CCCC[C@@H]1c1ccc(OCc2cccc(F)c2)cc1 | < 70 |
| c1coc(CNc2nc(N3CCCCC3)nc3ccccc23)c1 | < 70 |
| CN(C)Cc1nc(=O)c2c([nH]1)-c1ccccc1CC2(C)C | < 70 |
| CCc1sc(C(=O)Nc2cnc3ccccc3c2)cc1C | < 70 |
| O=C(NC1CCN(Cc2ccccc2)CC1)c1cc(-c2ccncc2)nc2ccc(Cl)cc12 | < 70 |
| CCOc1ccc(C2N(C)c3ccccc3N2C)cc1 | < 70 |
| CCCS(=O)(=O)N1CCC(CO)(Cc2ccccc2C(F)(F)F)CC1 | < 70 |
| CC(C)(C)OC(=O)N1CCN(c2nccc(-c3ccc(-c4ccc(Cl)cc4)s3)n2)CC1 | < 70 |
| O=C(Nc1ccc(-c2nc3cc(NC(=O)c4ccc(Cl)cc4)ccc3[nH]2)cc1)c1ccc(Cl)cc1 | < 70 |
| COc1ccc(N2CCN(C(CNC(=O)CC(C)(C)C)c3ccc4c(c3)OCO4)CC2)cc1 (stereo unspecified) | < 70 |
| CC[n+]1ccccc1/C=C/c1ccc(N(C)C)cc1 | < 70 |
| COc1ccc(NC(=O)c2ccoc2)cc1S(=O)(=O)Nc1ccc(Br)cc1 | < 70 |
| CCOc1ccc(CCNC(=O)c2cccs2)cc1OCC | < 70 |
| O=C(C1CCN(c2cc(-n3cccc3)ncn2)CC1)N1CCc2ccccc2C1 | < 70 |
| Cc1ccccc1-n1nnc(C(=O)Nc2cccc(Br)c2)c1N | < 70 |
| N#C/C(=N\Nc1cc(C(F)(F)F)ccc1OCC(F)(F)F)S(=O)(=O)c1ccccc1 | < 70 |
| Cc1ccc(C(=O)Nc2ccc(S(=O)(=O)O)c3cc(S(=O)(=O)O)cc(S(=O)(=O)O)c23)cc1NC(=O)c1cccc(NC(=O)Nc2cccc(C(=O)Nc3cc(C(=O)Nc4ccc(S(=O)(=O)O)c5cc(S(=O)(=O)O)cc(S(=O)(=O)O)c45)ccc3C)c2)c1 | < 70 |
| Cc1ccc2c(CSc3nc(N)c(C#N)cc3C#N)cc(=O)oc2c1C | < 70 |
| Nc1c(C(=O)c2ccc3c(c2)NC(=O)CO3)sc2c1c(=O)[nH]c(=O)n2Cc1ccccc1 | < 70 |
| Nc1nccc2ccc(-c3ccc4nccn4c3)cc12 | < 70 |

| Compound | growth inhibition at single dose [%] |
| --- | --- |
| O=C(NNc1cccc(F)n1)C(F)(F)F | < 70 |
| Cc1cc(C)c2cc(C(=O)NC3CCCCCCC3)[nH]c2c1 | < 70 |
| c1ccc2c(NCCc3c[nH]c4ccccc34)c3ccccc3nc2c1 | < 70 |
| Cn1ccnc1Sc1ncnc2sccc12 | < 70 |
| CC(=O)N1CCc2cc3nc(C)cc(C)c3cc21 | < 70 |
| CCCCc1ccc(NC(=O)Nc2ccc(O[C@H]3CCCC[C@@H]3N(C)c3ccccc3)c(F)c2)cc1 | < 70 |
| COc1ccc2c(c1)C1(Nc3ccccc3-c3nc4ccccc4n31)C(=O)N2 (stereo unspecified) | < 70 |
| CCN(CC)S(=O)(=O)N1CCN(C(=O)c2[nH]nc3ccccc23)CC1 | < 70 |
| c1ccc(Oc2ccc(-c3cc(CN4CCOCC4)[nH]n3)cc2)cc1 | < 70 |
| O=C(CC1Sc2ccccc2NC1=O)NCCCn1ccc2ccccc21 (stereo unspecified) | < 70 |
| CNC(=O)c1ccc(CN(C2CC2)S(=O)(=O)c2ccc(C)cc2C)cc1 | < 70 |
| Nc1ncc(-c2ccc(C(F)(F)F)nc2)cc1-c1ccc(C(F)(F)F)nc1 | < 70 |
| Cc1cccc(-c2nnc(Sc3nc(C)nc4sc5c(c34)CCCC5)n2CC(N)=O)c1 | < 70 |
| CNc1snc(C)c1C(=O)NC(C)c1ccc(C(C)C)cc1 (stereo unspecified) | < 70 |
| CS(=O)(=O)N1CCCc2cc(-c3csc(Nc4ccccn4)n3)ccc21 | < 70 |
| CCOc1ccc(C=Cc2nc(=O)c3ccccc3o2)cc1 | < 70 |
| O=C(O)c1c2c(nc3ccccc13)/C(=C/c1ccccc1Cl)CC2 | < 70 |
| Cn1ncc2c(N3CCN(CC(=O)Nc4nc(-c5c[nH]c6ccccc56)cs4)CC3)ncnc21 | < 70 |
| O=C(NC1CC1)c1ccc(CSCc2ccccc2Cl)o1 | < 70 |
| COc1ccc(-n2nc(C)c3c2NC(=O)CC3c2ccc3c(c2)OCO3)cc1 (stereo unspecified) | < 70 |
| CCc1c(C(=O)Nc2ccn(CCc3ccccn3)n2)cnn1C(C)(C)C | < 70 |
| O=C(Nc1ccsc1C(=O)NC1CCCCC1)c1ccc(F)cc1 | < 70 |
| COc1ccc(S(=O)(=O)NN(C)c2nc(C(F)(F)F)nc3ccccc23)cc1 | < 70 |
